Laboratory results: US20140001056A1 (priority 2011, published 2014)
Where “and” joins values, the source holds several entries; their conditions need not be identical. Identical values can stand only once. Like-named read-outs stand apart in the source and are kept apart here.

Tests used:
[1] = target: T1, WT-α-HL pore (Staphylococcus aureus, UniProt P09616); assay type: binding
[2] = target: T1, WT-α-HL pore; conditions: cited from earlier work
[3] = target: α-HL monomer (Staphylococcus aureus, UniProt P09616)
Chain of α-HL monomer (P09616 27-319 limits assumed): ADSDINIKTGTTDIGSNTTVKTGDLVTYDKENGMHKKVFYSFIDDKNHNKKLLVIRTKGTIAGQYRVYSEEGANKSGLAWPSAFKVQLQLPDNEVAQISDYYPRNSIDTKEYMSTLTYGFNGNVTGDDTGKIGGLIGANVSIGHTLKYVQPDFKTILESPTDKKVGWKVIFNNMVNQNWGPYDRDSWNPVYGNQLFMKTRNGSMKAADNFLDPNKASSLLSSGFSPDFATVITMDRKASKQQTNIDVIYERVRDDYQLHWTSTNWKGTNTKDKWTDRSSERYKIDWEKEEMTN

[4] = target: α-HL heptamer (Staphylococcus aureus, UniProt P09616)
Chain of α-HL heptamer (P09616 27-319 limits assumed): as above

[5] = target: WT-Kcv (Paramecium bursaria Chlorella virus 1, UniProt Q84568)
Chain of WT-Kcv (Q84568 whole entry, looked up): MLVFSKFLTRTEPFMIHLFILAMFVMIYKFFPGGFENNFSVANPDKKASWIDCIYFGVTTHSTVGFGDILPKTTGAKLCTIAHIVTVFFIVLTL

[6] = target: MspA (NNNRRK mutant) (Mycolicibacterium smegmatis, UniProt A0QR29, D117N/D118N/D120N/D145R/D161R/E166K)
Chain of MspA (NNNRRK mutant) (A0QR29 28-211 D117N/D118N/D120N/D145R/D161R/E166K limits assumed): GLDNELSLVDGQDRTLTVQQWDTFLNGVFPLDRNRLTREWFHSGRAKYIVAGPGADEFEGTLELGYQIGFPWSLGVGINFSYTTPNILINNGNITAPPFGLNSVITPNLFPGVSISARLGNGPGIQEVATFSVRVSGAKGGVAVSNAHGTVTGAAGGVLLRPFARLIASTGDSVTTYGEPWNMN

T1 sequence (P09616 27-319 limits assumed): as the sequence (P09616 27-319 limits assumed) above

## β-cyclodextrin [βCD]
[1]
  Kd: 5.4 mM and 9.6 mM
  gα-HL·βCD, unitary conductance with βCD bound: 257 ± 3 pS and 232 ± 4 pS
  koff: 1.7 ± 0.1 × 10^3 s^−1 and 2.4 ± 0.3 × 10^3 s^−1
  kon: 3.1 ± 0.1 × 10^5 M^−1s^−1 and 2.5 ± 0.4 × 10^5 M^−1s^−1
[2]
  gα-HL·βCD, unitary conductance with βCD bound: 253 ± 4 pS and 240 ± 3 pS
  koff: 2.1 ± 0.2 × 10^3 s^−1 and 1.3 ± 0.1 × 10^3 s^−1
  kon: 2.8 ± 0.2 × 10^5 M^−1s^−1 and 4.0 ± 0.3 × 10^5 M^−1s^−1

## Fluorinated octyl maltoside [F6OM]
[3]
  Initial rate of release of dye: 4 % min^−1
  Lag time before initiation of release: 4.4 min
[4]
  Initial rate of release of dye: 16 % min^−1
  Lag time before initiation of release: 1.8 min

## C6F13C2H4—S-poly[tris(hydroxymethyl)aminomethane] [F6TAC]
[3]
  Initial rate of release of dye: 6.5 % min^−1
  Lag time before initiation of release: 7.5 min
[4]
  Initial rate of release of dye: 16 % min^−1
  Lag time before initiation of release: 4.8 min

## Fluorinated fos-choline [F6FC]
[5]
  blockades or gating changes of Kcv channels already inserted: did not cause blockades or changes in the gating
  insertion of Kcv channels into planar lipid bilayer: No openings are seen
  single-channel IV curve of Kcv: unchanged
[3]
  Percent release of dye at end point: 0.2% and 0.3%
[6]
  blockades or gating changes of MspA pores already inserted: did not cause blockades or changes in the gating
  insertion of MspA pores into planar lipid bilayer: No further insertion events occur
[4]
  Lag time before initiation of release: 2.8 min and 4.3 min
[1]; pH 7.5
  gα-HL, unitary conductance in the absence of βCD: 650 ± 3 pS and 721 ± 4 pS
